Results taken from patent US20240317744A1, “Bicyclic Ureas As Kinase Inhibitors” (Incyte Corporation, priority 2023, published 2024).

How the values were obtained:
[1] = biological target: T1, catalytic domain (JH1, amino acids 826-1132) of human JAK2 (Homo sapiens, UniProt O60674); assay: JAK2 LanthaScreen JH1 Binding Assay; conditions: JAK2 JH1 1.5 nM, 50 nM tracer, 2 hours at 25° C.; read-out: JH1 BIND
T1 construct: catalytic domain (JH1, amino acids 826-1132) of human JAK2; FLAG (N); biotin (biotinylated); purchased Carna Biosciences 08-445-20N; host or cells: baculovirus expression system
T1 sequence (O60674 826-1132): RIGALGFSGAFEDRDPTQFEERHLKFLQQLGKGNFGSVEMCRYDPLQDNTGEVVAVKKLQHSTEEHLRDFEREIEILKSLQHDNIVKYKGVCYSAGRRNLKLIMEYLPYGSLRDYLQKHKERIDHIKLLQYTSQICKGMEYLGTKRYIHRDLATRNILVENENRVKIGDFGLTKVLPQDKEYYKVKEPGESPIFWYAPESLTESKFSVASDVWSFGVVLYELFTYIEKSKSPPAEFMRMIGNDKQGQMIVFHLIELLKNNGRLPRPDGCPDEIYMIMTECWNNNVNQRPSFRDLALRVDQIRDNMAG
Protocol: Example A. JAK2 LanthaScreen JH1 Binding Assay
JAK2 JH1 binding assay utilizes catalytic domain (JH1, amino acids 826-1132) of human JAK2 expressed as N-terminal FLAG-tagged, biotinylated protein in a baculovirus expression system (Carna Biosciences, Product #08-445-20N). The assay was conducted in black 384-well polystyrene plates in a final reaction volume of 20 μL. JAK2 JH1 (1.5 nM) was incubated with compounds (100 nL serially diluted in DMSO) in the presence of 50 nM fluorescent JAK2-JH1 tracer and 0.5 nM Streptavidin-Tb cryptate (Cisbio Part #610SATLB) in assay buffer (50 mM Tris, pH=7.5, 10 mM MgCl2, 0.01% Brij-35, 0.1% BSA, 1 mM EGTA, 5% Glycerol and 5 mM DTT). Non-specific binding was accessed in the presence of 2 mM ATP. After incubation for 2 hours at 25° C., LanthaScreen signals were read on a PHERAstar FS plate reader (BMG LABTECH). Data was analyzed with IDBS XLfit and GraphPad Prism 5.0 software using a four parameter dose response curve to determine IC50 for each compound.

[2] = biological target: T2, pseudo-kinase domain (JH2, amino-acids 536-812) of human Wild Type JAK2 (Homo sapiens, UniProt O60674, F794H/W659A/W777A); assay: JAK2 LanthaScreen JH2-WT Binding Assay; conditions: JAK2 JH2-WT 0.145 nM, 50 nM tracer, 1 hour at 25° C.; read-out: JH2 BIND WT
T2 construct: pseudo-kinase domain (JH2, amino-acids 536-812 with 3 surface mutations W659A, W777A, F794H); His (C); purchased BPS Bioscience 79463; host or cells: baculovirus expression system
T2 sequence (O60674 536-812 W659A/W777A/F794H): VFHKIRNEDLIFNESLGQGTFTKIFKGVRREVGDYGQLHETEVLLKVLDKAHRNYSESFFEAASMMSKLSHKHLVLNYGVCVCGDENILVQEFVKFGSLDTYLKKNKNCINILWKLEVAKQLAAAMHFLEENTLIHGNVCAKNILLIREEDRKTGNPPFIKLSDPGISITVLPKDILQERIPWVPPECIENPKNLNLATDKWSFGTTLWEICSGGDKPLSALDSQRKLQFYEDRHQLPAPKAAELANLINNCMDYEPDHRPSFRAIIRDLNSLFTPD
Protocol: Example B. JAK2 LanthaScreen JH2-WT Binding Assay
JAK2 JH2-WT binding assay utilizes pseudo-kinase domain (JH2, amino-acids 536-812 with 3 surface mutations W659A, W777A, F794H) of human Wild Type JAK2 expressed as C-terminal His-Avi-tagged, biotinylated protein in a baculovirus expression system (BPS Bioscience, Catalog #79463). The assay was conducted in black 384-well polystyrene plates in a final reaction volume of 20 μL. JAK2 JH2-WT (0.145 nM) was incubated with compounds (100 nL serially diluted in DMSO) in the presence of 50 nM Fluorescent JAK2-JH2 Tracer (MedChem Express Catalog #HY-102055) and 0.25 nM Streptavidin-Tb cryptate (Cisbio Part #610SATLB) in assay buffer (50 mM Tris, pH=7.5, 10 mM MgCl2, 0.01% Brij-35, 0.1% BSA, 1 mM EGTA, 5% Glycerol and 5 mM DTT). Non-specific binding was accessed in the presence of 2 mM ATP. After incubation for 1 hour at 25° C., LanthaScreen signals were read on a PHERAstar FS plate reader (BMG LABTECH). Data was analyzed with IDBS XLfit and GraphPad Prism 5.0 software using a four parameter dose response curve to determine IC50 for each compound.

[3] = biological target: T3, pseudo-kinase domain (JH2, amino-acids 536-812) of human V617F mutant JAK2 (Homo sapiens, UniProt O60674, F794H/V617F/W659A/W777A); assay: JAK2 LanthaScreen JH2-V617F Binding Assay; conditions: JAK2 JH2-V617F 0.26 nM, 50 nM tracer, 1 hour at 25° C.; read-out: JH2 BIND V617F
T3 construct: pseudo-kinase domain (JH2, amino-acids 536-812 with 3 surface mutations W659A, W777A, F794H); His (C); purchased BPS Bioscience 79498; host or cells: baculovirus expression system
T3 sequence (O60674 536-812 V617F/W659A/W777A/F794H): as the sequence (O60674 536-812 W659A/W777A/F794H) above, with V82F counted along it
In short: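 This is a TR-FRET tracer-displacement format with a 1 h, 25 °C incubation. It combined 0.26 nM baculovirus-expressed biotinylated JH2-V617F, 50 nM fluorescent JAK2-JH2 tracer and 0.25 nM streptavidin-Tb cryptate in 50 mM Tris pH 7.5, 10 mM MgCl2, 5 mM DTT. Background came from 2 mM ATP, and IC50 values were from four-parameter dose-response fits.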

[4] = biological target: catalytic domain (JH1, amino acids 808-1132) of human JAK2 (Homo sapiens, UniProt O60674); assay: JAK2 HTRF Enzyme Activity Assay; assay type: biochemical; conditions: ATP 30 µM, 60 minutes at 25° C.; read-out: V617F ENZ 30 UM
Sequence of catalytic domain (JH1, amino acids 808-1132) of human JAK2 (O60674 808-1132 limits assumed): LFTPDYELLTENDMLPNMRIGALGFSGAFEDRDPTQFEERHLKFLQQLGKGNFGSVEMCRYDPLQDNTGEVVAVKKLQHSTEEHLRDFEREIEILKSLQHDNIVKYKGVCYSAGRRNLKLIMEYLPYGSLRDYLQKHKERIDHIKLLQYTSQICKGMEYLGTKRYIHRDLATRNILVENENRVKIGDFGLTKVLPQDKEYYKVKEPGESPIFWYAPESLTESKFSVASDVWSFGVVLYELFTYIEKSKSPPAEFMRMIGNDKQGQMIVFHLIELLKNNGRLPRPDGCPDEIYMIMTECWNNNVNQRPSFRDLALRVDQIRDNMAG

Compound `COC(=O)Nc1cc(Nc2cc3c(cn2)n(C)c(=O)n3C2CCC(C)(NC(=O)OC)CC2)cc(-c2cnn(C)c2)c1` (stereo not drawn) [Example 42, Methyl (3-((1-(4-((methoxycarbonyl)amino)-4-methylcyclohexyl)-3-methyl-2-oxo-2,3-dihydro-1H-imidazo[4,5-c]pyridin-6-yl)amino)-5-(1-methyl-1H-pyrazol-4-yl)phenyl)carbamate] has an IC50 [1] greater than 1000 nM, an IC50 [2] of 10 to 100 nM and an IC50 [3] of 10 to 100 nM. For the same compound, the IC50 [4] was greater than 1000 nM.
`COC(=O)N[C@@H]1CC[C@@H](n2c(=O)n(C)c3cnc(Nc4ccnc(N5CCC6(CC6)C5)n4)cc32)C1` [Example 77, Methyl ((1R,3R)-3-(6-((2-(5-azaspiro[2.4]heptan-5-yl)pyrimidin-4-yl)amino)-3-methyl-2-oxo-2,3-dihydro-1H-imidazo[4,5-c]pyridin-1-yl)cyclopentyl)carbamate] was tested, and the IC50 [1] was greater than 1000 nM, the IC50 [2] was no more than 10 nM and the IC50 [3] was no more than 10 nM. It also gave an IC50 [4] greater than 1000 nM.
Work on `[2H]C([2H])([2H])n1c(=O)n([C@@H]2CC[C@@]([2H])(NC(=O)OC)C2)c2cc(Nc3cc(-c4cccnc4C(F)(F)F)cc(-c4ncc(C(C)(C)O)s4)n3)ncc21` [Example 167, Methyl ((1R,3R)-3-(6-((6′-(5-(2-hydroxypropan-2-yl)thiazol-2-yl)-2-(trifluoromethyl)-[3,4′-bipyridin]-2′-yl)amino)-3-(methyl-d3)-2-oxo-2,3-dihydro-1H-imidazo[4,5-c]pyridin-1-yl)cyclopentyl-1-d)carbamate] yielded an IC50 [3] of no more than 10 nM and an IC50 [4] greater than 1000 nM.
Compound `[2H]C([2H])([2H])n1c(=O)n([C@@H]2CC[C@](C)(NC(C)=O)C2)c2cc(Nc3cc(-c4cnccc4C(F)(F)F)c4nc(C)c(-c5cnn(C(F)F)c5)n4n3)ncc21` [Example 168, N-((1S,3R)-3-(6-((3-(1-(Difluoromethyl)-1H-pyrazol-4-yl)-2-methyl-8-(4-(trifluoromethyl)pyridin-3-yl)imidazo[1,2-b]pyridazin-6-yl)amino)-3-(methyl-d3)-2-oxo-2,3-dihydro-1H-imidazo[4,5-c]pyridin-1-yl)-1-methylcyclopentyl)acetamide] has an IC50 [3] of no more than 10 nM and an IC50 [4] greater than 1000 nM.
For `[2H]C([2H])([2H])n1c(=O)n([C@@H]2CC[C@@]([2H])(NC(=O)OC)C2)c2cc(Nc3cc(C4CCOCC4)cc(-c4ncc(C(C)(C)O)s4)n3)ncc21` [Example 162, Methyl ((1R,3R)-3-(6-((6-(5-(2-hydroxypropan-2-yl)thiazol-2-yl)-4-(tetrahydro-2H-pyran-4-yl)pyridin-2-yl)amino)-3-(methyl-d3)-2-oxo-2,3-dihydro-1H-imidazo[4,5-c]pyridin-1-yl)cyclopentyl-1-d)carbamate], the IC50 [3] was no more than 10 nM and the IC50 [4] was greater than 1000 nM.
With `[2H]C([2H])([2H])n1c(=O)n([C@@H]2CC[C@@H](NC(=O)OC)C2)c2cc(Nc3ccc4nn(CC(C)(C)O)c(-c5cnn(C(F)(F)F)c5)c4n3)ncc21` [Example 122, Methyl ((1R,3R)-3-(6-((2-(2-hydroxy-2-methylpropyl)-3-(1-(trifluoromethyl)-1H-pyrazol-4-yl)-2H-pyrazolo[4,3-b]pyridin-5-yl)amino)-3-(methyl-d3)-2-oxo-2,3-dihydro-1H-imidazo[4,5-c]pyridin-1-yl)cyclopentyl)carbamate] the IC50 [3] was no more than 10 nM and the IC50 [4] was greater than 1000 nM.
Work on `[2H]C([2H])([2H])n1c(=O)n([C@@H]2CC[C@@]([2H])(NC(=O)OC)C2)c2cc(Nc3cc(C)c(F)c(-c4ncc(C(C)(C)O)s4)n3)ncc21` [Example 149, Methyl ((1R,3R)-3-(6-((5-fluoro-6-(5-(2-hydroxypropan-2-yl)thiazol-2-yl)-4-methylpyridin-2-yl)amino)-3-(methyl-d3)-2-oxo-2,3-dihydro-1H-imidazo[4,5-c]pyridin-1-yl)cyclopentyl-1-d)carbamate] yielded an IC50 [3] of no more than 10 nM and an IC50 [4] greater than 1000 nM.
With `[2H]C([2H])([2H])n1c(=O)n([C@H]2CC[C@@](C)(NC(=O)C3CC3)CC2)c2cc(Nc3cc(C(=O)N4CCOCC4)c4nn(C)c(-c5cnn(C(F)(F)F)c5)c4n3)ncc21` [Example 127, N-((1s,4s)-1-Methyl-4-(3-(methyl-d3)-6-((2-methyl-7-(morpholine-4-carbonyl)-3-(1-(trifluoromethyl)-1H-pyrazol-4-yl)-2H-pyrazolo[4,3-b]pyridin-5-yl)amino)-2-oxo-2,3-dihydro-1H-imidazo[4,5-c]pyridin-1-yl)cyclohexyl)cyclopropanecarboxamide] the IC50 [3] was no more than 10 nM and the IC50 [4] was greater than 1000 nM.
`[2H]C([2H])([2H])n1c(=O)n([C@@H]2CC[C@](C)(NC(=O)OC)C2)c2cc(Nc3ccc4c(n3)c(-c3cnn(C(F)(F)F)c3)nn4CC(C)(C)O)ncc21` [Example 128, Methyl ((1S,3R)-3-(6-((1-(2-hydroxy-2-methylpropyl)-3-(1-(trifluoromethyl)-1H-pyrazol-4-yl)-1H-pyrazolo[4,3-b]pyridin-5-yl)amino)-3-(methyl-d3)-2-oxo-2,3-dihydro-1H-imidazo[4,5-c]pyridin-1-yl)-1-methylcyclopentyl)carbamate] gave an IC50 [3] of no more than 10 nM and an IC50 [4] greater than 1000 nM.
In the case of `[2H]C([2H])([2H])n1c(=O)n([C@@H]2CC[C@]([2H])(NC(=O)OC)C2)c2cc(Nc3cc(-c4cnccc4C(F)(F)F)c4nc(C)c(-c5cnn(C(F)F)c5)n4n3)ncc21` [Example 160, Methyl ((1S,3R)-3-(6-((3-(1-(difluoromethyl)-1H-pyrazol-4-yl)-2-methyl-8-(4-(trifluoromethyl)pyridin-3-yl)imidazo[1,2-b]pyridazin-6-yl)amino)-3-(methyl-d3)-2-oxo-2,3-dihydro-1H-imidazo[4,5-c]pyridin-1-yl)cyclopentyl-1-d)carbamate], the IC50 [3] is reported as no more than 10 nM and the IC50 [4] is reported as greater than 1000 nM.
`[2H]C([2H])([2H])n1c(=O)n([C@@H]2CC[C@@]([2H])(NC(=O)OC)C2)c2cc(Nc3cc(C(C)(C)O)cc(-c4ncc(C(F)(F)F)s4)n3)ncc21` [Example 158, Methyl ((1R,3R)-3-(6-((4-(2-hydroxypropan-2-yl)-6-(5-(trifluoromethyl)thiazol-2-yl)pyridin-2-yl)amino)-3-(methyl-d3)-2-oxo-2,3-dihydro-1H-imidazo[4,5-c]pyridin-1-yl)cyclopentyl-1-d)carbamate] gave an IC50 [3] of no more than 10 nM and an IC50 [4] greater than 1000 nM.
`[2H]C1(NC(=O)OC)CC[C@@H](n2c(=O)n(C([2H])([2H])[2H])c3cnc(Nc4cc(C(C)(C)O)c5[nH]cc(-c6cnn(C(F)(F)F)c6)c5n4)cc32)C1` (stereo partly drawn) [Example 130, Methyl ((3R)-3-(6-((7-(2-hydroxypropan-2-yl)-3-(1-(trifluoromethyl)-1H-pyrazol-4-yl)-1H-pyrrolo[3,2-b]pyridin-5-yl)amino)-3-(methyl-d3)-2-oxo-2,3-dihydro-1H-imidazo[4,5-c]pyridin-1-yl)cyclopentyl-1-d)carbamate] was tested, and the IC50 [3] was no more than 10 nM and the IC50 [4] was greater than 1000 nM.
With `[2H]C([2H])([2H])n1c(=O)n([C@@H]2CC[C@](C)(NC(C)=O)C2)c2cc(Nc3cc(C(C)(C)O)cc(-c4ncc(Cl)s4)n3)ncc21` [Example 136, N-((1S,3R)-3-(6-((6-(5-Chlorothiazol-2-yl)-4-(2-hydroxypropan-2-yl)pyridin-2-yl)amino)-3-(methyl-d3)-2-oxo-2,3-dihydro-1H-imidazo[4,5-c]pyridin-1-yl)-1-methylcyclopentyl)acetamide] the IC50 [3] was no more than 10 nM and the IC50 [4] was greater than 1000 nM.
